Test results taken from ChEMBL document CHEMBL1641509, “A PIM₂ analogue suppresses allergic airway disease” (Bioorg Med Chem, 2011).
Active and inactive are the calls of the source.

What was measured:
Type in all cases: functional, organism-based
Conditions in all cases: Lung
Mus musculus [1] = test: Antiinflammatory activity against ovalbumin-induced airway allergic C57BL/6 mouse model assessed as decrease of lymphocytes in bronchoalveolar lavage fluid at 20 ug/mL administered intranasally after 28 days ovalbumin challenge measured on day 32
Mus musculus [2] = test: Antiinflammatory activity against ovalbumin-induced airway allergic C57BL/6 mouse model assessed as reduction of recruitment of eosinophils in bronchoalveolar lavage fluid at 20 ug/mL administered intranasally after 28 days ovalbumin challenge measured on day 32
Mus musculus [3] = test: Antiinflammatory activity against ovalbumin-induced airway allergic C57BL/6 mouse model assessed as decrease of macrophages in bronchoalveolar lavage fluid at 20 ug/mL administered intranasally after 28 days ovalbumin challenge measured on day 32

Measured: Activity

CCCCCCCCCCCCCCCCCC(=O)OC[C@H](COP(=O)(O)OC(CO[C@H]1O[C@H](CO)[C@@H](O)[C@H](O)[C@@H]1O)CO[C@H]1O[C@H](CO)[C@@H](O)[C@H](O)[C@@H]1O)OC(=O)CCCCCCCCCCCCCCCCC
active: all assays above
